This assay concerns organisms on freshly killed whole birds (3M Aerobic Count Petrifilm). The assay can be described thus: Whole bird carcass dip test, aerobic count. To be noted: for Average Organisms/Bird / Organisms/Bird / % Reduction: 10 seconds dip, pre 5 bird dip pH 1.80, post pH 1.96; for Organisms/Bird: individual birds; for % Reduction: vs no-treatment control. Here is the method:
In order to test the efficacy of the composition of the present invention for use in treating animal carcasses, freshly killed whole birds were dipped and completely immersed in 13 liters of treatment solution for 10 seconds. […] The growth medium was 3M Aerobic Count Petrifilm. The incubation was 2-3 days at 35° C. […] The same test was repeated using commercially available products, […]12, and Eden, comparing these with sodium acid sulfate and sodium acid sulfate in combination with citric acid.

Data on one compound can be found in patent US20100098782A1, “USE OF SODIUM ACID SULFATE AS A DISINFECTANT” (JOHNSONDIVERSEY, INC., priority 2008, published 2010).

“And” between values parts separate entries of the source, which are not always exact repeats. Equal values may be shown once.

In the case of `CC(O)C(=O)O` (stereo not shown) [Lactic Acid, lactic acid, reference compound], where the note is “2400 ppm Lactic Acid”, the “Average Organisms/Bird” value is reported as 2,054,800 Organisms/Bird; the Organisms/Bird was 600,000 Organisms/Bird and 1,074,000 Organisms/Bird and 2,120,000 Organisms/Bird and 3,240,000 Organisms/Bird (2×); the “% Reduction” value was found to be 10.8%. For the setting “4800 ppm Lactic Acid”, the “Average Organisms/Bird” value was 1,430,000 Organisms/Bird; the Organisms/Bird is 1,000,000 Organisms/Bird and 1,800,000 Organisms/Bird and 1,400,000 Organisms/Bird and 1,520,000 Organisms/Bird; the “% Reduction” value was 37.9%. For the same compound, the “antimicrobial effect in carcass dip (in words)” value (lactic acid itself (2400 and 4800 ppm)) is “relatively little antimicrobial effect”.
